Our source for the T/C values is PubChem BioAssay AID330 (DTP/NCI, 2004).

The test has as its system P388 leukemia ip, CD2F1 mice, survival T/C. Kind of test: NCI In Vivo Anticancer Drug Screen. Data for tumor model P388 Leukemia (intraperitoneal) in CD2F1 (CDF1) mice. Conditions: endpoint: median survival time, higher = longer survival. The method, boiled down: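 Mice carrying the transplanted tumor received test compound or vehicle. Survival was recorded in each group, and the value is the treated-group measurement divided by that of the vehicle-treated control group.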

Where [1] appears, read: dose: 100.0 mg/kg/injection, schedule: Q04DX002 (ip), vehicle: saline with Tween-80.
Where [2] appears, read: dose: 200.0 mg/kg/injection, schedule: Q04DX002 (ip), vehicle: saline with Tween-80.
[3] abbreviates: dose: 100.0 mg/kg/injection, schedule: Q01DX009 (ip), vehicle: saline with Tween-80.
The mark [4] stands for this setting: dose: 50.0 mg/kg/injection, schedule: Q01DX009 (ip), vehicle: saline with Tween-80.
Setting [5] is: dose: 400.0 mg/kg/injection, schedule: Q04DX002 (ip), vehicle: saline with Tween-80.
Where [6] appears, read: dose: 60.0 mg/kg/injection, schedule: Q01DX005 (ip), vehicle: saline.
The mark [7] stands for this setting: dose: 120.0 mg/kg/injection, schedule: Q01DX005 (ip), vehicle: saline.
The mark [8] stands for this setting: dose: 240.0 mg/kg/injection, schedule: Q01DX005 (ip), vehicle: saline.
[9] abbreviates: dose: 60.0 mg/kg/injection, schedule: Q01DX005 (ip), vehicle: Klucel (hydroxypropylcellulose) (HPC).
The mark [10] stands for this setting: dose: 120.0 mg/kg/injection, schedule: Q01DX005 (ip), vehicle: Klucel (hydroxypropylcellulose) (HPC).
[11] abbreviates: dose: 240.0 mg/kg/injection, schedule: Q01DX005 (ip), vehicle: Klucel (hydroxypropylcellulose) (HPC).

Toxic doses and inconclusive results are not listed. Bridge positions count the residues as written; N and C are the ends. Square brackets hold non-standard residues; d marks the D form. Peptide text beside a SMILES is read from it. NMeV = CN[CH](C(=O)O)C(C)C; Sar = CNCC(=O)O

For the compound `Cn1c(=O)c2c(ncn2-c2ccc(N)cc2)n(C)c1=O`, the T/C reads like this: (dose: 1.56 mg/kg/injection, schedule: Q01DX005 (ip), vehicle: water) 95 % of control; (dose: 3.12 mg/kg/injection, schedule: Q01DX005 (ip), vehicle: water) 105 % of control; (dose: 6.25 mg/kg/injection, schedule: Q01DX005 (ip), vehicle: other) 104 % of control; (dose: 6.25 mg/kg/injection, schedule: Q01DX005 (ip), vehicle: water) 96 % of control; (dose: 12.5 mg/kg/injection, schedule: Q01DX005 (ip), vehicle: other) 106 % of control; (dose: 12.5 mg/kg/injection, schedule: Q01DX005 (ip), vehicle: water) 102 % of control. For the same compound, the T/C reads like this: (dose: 25.0 mg/kg/injection, schedule: Q01DX005 (ip), vehicle: other) 101 % of control; (dose: 50.0 mg/kg/injection, schedule: Q01DX005 (ip), vehicle: water) 101 % of control.

On to `CCOC(=O)NC(NC(=O)OCC)c1ccccc1[N+](=O)[O-]`, for which the T/C was 99 % of control (dose: 100.0 mg/kg/injection, schedule: Q04DX003 (ip), vehicle: saline); 99 % of control (dose: 200.0 mg/kg/injection, schedule: Q04DX003 (ip), vehicle: saline); 89 % of control (dose: 400.0 mg/kg/injection, schedule: Q04DX003 (ip), vehicle: saline).

Turning to `O=c1c(-c2ccccc2)cc2c(-c3ccccc3)oc(-c3ccccc3)c2cc1-c1ccccc1`, the T/C reads like this: (dose: 50.0 mg/kg/injection, schedule: Q04DX002 (ip), vehicle: saline with Tween-80) 90 % of control; under setting [1], 94 % of control; under setting [2], 92 % of control.

Regarding `CCCC1C/C=C/C=C/C=C/C=C/C(OC2OC(C)C(O)C(N)C2O)CC(O)C(C(=O)O)C(O)CC(=O)CC(O)CCCC(=O)CC(O)C(CC)C(=O)O1` (stereo not given), the T/C (dose: 2.5 mg/kg/injection, schedule: Q01DX009 (ip), vehicle: Klucel (hydroxypropylcellulose) (HPC)) is 94 % of control; the T/C (dose: 5.0 mg/kg/injection, schedule: Q01DX009 (ip), vehicle: Klucel (hydroxypropylcellulose) (HPC)) is 106 % of control; the T/C (dose: 10.0 mg/kg/injection, schedule: Q01DX009 (ip), vehicle: Klucel (hydroxypropylcellulose) (HPC)) is 92 % of control; the T/C (dose: 20.0 mg/kg/injection, schedule: Q01DX009 (ip), vehicle: Klucel (hydroxypropylcellulose) (HPC)) is 87 % of control.

On to `COc1cc(OC)c(C2SCC(=O)N2c2nnc(C(F)(F)F)s2)cc1OC` (stereo not given), for which the T/C was 100 % of control (dose: 60.0 mg/kg/injection, schedule: Q01DX005 (ip), vehicle: saline with Tween-80); 99 % of control (dose: 120.0 mg/kg/injection, schedule: Q01DX005 (ip), vehicle: saline with Tween-80); 98 % of control (dose: 240.0 mg/kg/injection, schedule: Q01DX005 (ip), vehicle: saline with Tween-80).

As to `CCN(CC)C1=C(C)C2C(C)(C)N=NC12C(=O)OC` (stereo not given), the T/C reads like this: (dose: 50.0 mg/kg/injection, schedule: Q01DX005 (ip), vehicle: saline) 98 % of control; (dose: 100.0 mg/kg/injection, schedule: Q01DX005 (ip), vehicle: saline) 102 % of control; (dose: 200.0 mg/kg/injection, schedule: Q01DX005 (ip), vehicle: saline) 116 % of control.

Consider `S=C1Cc2[nH]c(=S)sc(=S)c2C(=S)N1`, for which the T/C under setting [3] was 87 % of control.

Regarding `C/C(C#N)=C/c1ccccc1`, the T/C by setting is: under setting [4], 104 % of control; under setting [3], 118 % of control.

In the case of `CN(C)CCNC(c1ccccc1)C(O)c1ccccc1` (stereo not given), the T/C is 100 % of control (dose: 50.0 mg/kg/injection, schedule: Q01DX009 (ip), vehicle: Klucel (hydroxypropylcellulose) (HPC)) and 101 % of control (dose: 100.0 mg/kg/injection, schedule: Q01DX009 (ip), vehicle: Klucel (hydroxypropylcellulose) (HPC)).

Consider `C1CC[C@H]2OCN[C@@H]2C1`, for which the T/C by setting is: (dose: 200.0 mg/kg/injection, schedule: Q04DX002 (ip), vehicle: Klucel (hydroxypropylcellulose) (HPC)) 118 % of control; (dose: 400.0 mg/kg/injection, schedule: Q04DX002 (ip), vehicle: Klucel (hydroxypropylcellulose) (HPC)) 115 % of control.

`COc1ccc2c(c1OC)C(=O)O[C@@H]2[C@H]1c2c(cc3c(c2OC)OCO3)CCN1C`: the T/C (dose: 62.5 mg/kg/injection, schedule: Q01DX010 (ip), vehicle: saline) is 100 % of control and the T/C (dose: 125.0 mg/kg/injection, schedule: Q01DX010 (ip), vehicle: saline) is 95 % of control.

Consider `Cc1ccc(S(=O)(=O)NCc2cccc(CNS(=O)(=O)c3ccc(C)cc3)c2)cc1`, for which the T/C was 104 % of control under setting [4]; 89 % of control under setting [3]; 100 % of control (dose: 200.0 mg/kg/injection, schedule: Q01DX009 (ip), vehicle: saline with Tween-80).

For `CC(C)C1NC(=O)C(N)C(C)OC(=O)C(C(C)C)N(C)C(=O)CN(C)C(=O)C2CCCN2C1=O` (stereo not given) (tested in a mixture with another compound) (H-TVP[Sar][NMeV]; ester 1-C; configuration not given here), the T/C runs as follows: (dose: 15.0 micrograms/kg/injection, schedule: Q01DX009 (ip), vehicle: water) 163 % of control; (dose: 31.0 micrograms/kg/injection, schedule: Q01DX009 (ip), vehicle: water) 159 % of control; (dose: 62.0 micrograms/kg/injection, schedule: Q01DX009 (ip), vehicle: water) 164 % of control; (dose: 110.0 micrograms/kg/injection, schedule: Q01DX009 (ip), vehicle: other) 200 % of control; (dose: 125.0 micrograms/kg/injection, schedule: Q01DX009 (ip), vehicle: water) 179 % of control; (dose: 165.0 micrograms/kg/injection, schedule: Q01DX009 (ip), vehicle: other) 254 % of control. Also, the T/C runs as follows: (dose: 250.0 micrograms/kg/injection, schedule: Q01DX009 (ip), vehicle: other) 180 % of control; (dose: 250.0 micrograms/kg/injection, schedule: Q01DX009 (ip), vehicle: water) 225 % of control.

Regarding `C1=C(c2ccccc2)N2CCCNC2(c2ccccc2)CS1` (stereo not given), the T/C by setting is: under setting [1], 90 % of control; under setting [2], 90 % of control; under setting [5], 88 % of control.

As to `COc1cccc2c1C(=O)c1c(O)c3c(c(O)c1C2=O)CC(O)(C(=O)CBr)CC3OC1CC(OC(C)=O)C(OC(C)=O)C(C)O1` (stereo not given), the T/C (dose: 3.13 mg/kg/injection, schedule: Q04DX003 (ip), vehicle: distilled water + Tween-80) is 108 % of control; the T/C (dose: 6.25 mg/kg/injection, schedule: Q04DX003 (ip), vehicle: distilled water + Tween-80) was 98 % of control; the T/C (dose: 12.5 mg/kg/injection, schedule: Q04DX003 (ip), vehicle: distilled water + Tween-80) was 106 % of control; the T/C (dose: 25.0 mg/kg/injection, schedule: Q04DX003 (ip), vehicle: distilled water + Tween-80) is 109 % of control; the T/C (dose: 50.0 mg/kg/injection, schedule: Q04DX003 (ip), vehicle: distilled water + Tween-80) is 105 % of control.

With `NC(=O)C(CO)NC(=O)c1cccnc1` (stereo not given), the T/C under setting [6] is 100 % of control, the T/C under setting [7] was 100 % of control and the T/C under setting [8] is 99 % of control.

For `COc1cccc(C(=O)Nc2ccccc2-c2ccccc2)c1OC`, the T/C is 97 % of control (dose: 50.0 mg/kg/injection, schedule: Q01DX005 (ip), vehicle: saline with Tween-80); 95 % of control (dose: 100.0 mg/kg/injection, schedule: Q01DX005 (ip), vehicle: saline with Tween-80); 87 % of control (dose: 200.0 mg/kg/injection, schedule: Q01DX005 (ip), vehicle: saline with Tween-80).

As for `Cc1c(-c2cccc(Cl)n2)nc2ccccc2c1C(=O)O`, the T/C was 99 % of control under setting [1], 99 % of control under setting [2] and 99 % of control under setting [5].

With `COc1ccccc1C1OC(=N)C(=S)N1C` (stereo not given), the T/C was 107 % of control under setting [9], 111 % of control under setting [10] and 113 % of control under setting [11].

In the case of `CN1C(=O)C(CC(=O)O)NC1=S` (stereo not given), the T/C is 101 % of control under setting [6], 103 % of control under setting [7] and 104 % of control under setting [8].

For `CCOC(=O)/C=C1\CSC2=NC(c3ccccc3)CN21` (stereo not given), the T/C by setting is: under setting [9], 94 % of control; under setting [10], 94 % of control; under setting [11], 86 % of control.
